{
  "source": "patent US7067697B2",
  "about": "“Cationic liposomes for gene transfer” (priority 1998, dated 2006)",
  "key": {"[1]": {"system": "CD-1 mouse lungs", "test": "In vivo transfection of CD-1 mice with i.v. lipoplex (pCMV-Luc), luciferase activity assay in organs", "conditions": "for Relative Activity of MMET Analogues-Cholesterol Liposomes: cationic lipid:cholesterol 1:1 mol/mol, in vivo transfection to the lungs, MMET = 100; for rank order of transfection activity in lungs: liposomes of pure cationic lipid, charge ratio 8:1 to 16:1, 12 hours after i.v.; for transfection level versus trimethylammonium counterparts (DOTMA, DOTAP): 4:1 +/− charge ratio, pure cationic lipid liposomes", "experimental": "Cationic liposomes of formulas (I-VI) were prepared from pure cationic lipids or as equimolar mixtures of a cationic lipid and neutral lipids, such as DOPE, or cholesterol, using extrusion or sonication methods. One hundred μmoles of a cationic lipid or one hundred μmoles each of a cationic lipid and a selected neutral lipid were dissolved in a round bottom flask. The organic solvent was then evaporated under vacuum at 45° C. to form a thin lipid film. The residual solvent was further removed under high vacuum for one hour. The lipid film was then suspended with 10 ml of endotoxin-free distilled water (Gibco, BRL, MD) at room temperature for one hour, and subsequently extruded using 0.8 μm, 0.4 μm and 0.2 μm pore size filters. The extruded multilammelar liposomes have sizes of 850 nm, 350 nm and 280 nm in diameter, respectively. Some of the extruded liposomes were further sonicated in a bath sonicator for 2-5 minutes to form unilamellar liposomes with a size of about 100 nm in diameter. The size of the liposomes were measured by 90° laser dynamic light scattering using a Zetamaster submicron particle analyzer.\n(§1) For transfection in vivo, normal CD-1 mouse was used as a model. The charge ration of lipid to DNA (±) was used throughout the study, assuming that 25 μg of DNA contains about 75 nmoles of negative charges, and one nmole of quaternary ammonium cationic lipid contains one nmole of positive charges. To prepare lipoplex for transfection, 25 μg or an indicated amounts of pCMV DNA was diluted in 100 μl of distilled water (endotoxin screened, Gibco). The diluted DNA solution was added to a polystyrene tube containing an indicated amount of cationic liposomes in 100 μl and was mixed immediately. The complexes were kept at + room temperature for 30 minutes before being administered to the animals via tail vein.\nLuciferase activity was measured in various organs, including lung, liver spleen, and heart from transfected animals, using a luciferase activity assay kit (Promega, Madison, Wis.) and a luminometer (Moonlight 3010). Organs were collected from the animals at 12 hours post transfection or at an indicated time after injection of lipoplex. About 0.2 g of liver were removed from the animal. One ml of 1× lysis buffer (Promega, Madison, Wis.), supplemented with 0.1% Triton-X100 was added to collected organs. Each organ was homogenized for 10-20 seconds using a handheld homogenizer (Dremel, Racine, Wis.) as it top speed (about 30,000 rpm). The samples were centrifuged in a microcentrifuge for three minutes. A 10 μL of the cleared supernatant, containing approximately 100-200 μg proteins, was measured for luciferase activity. Protein content in the supernatants was determined with BioRad dye reagent method, using albumin as a standard. The luciferase activities were normalized to the relative light unit per milligram of extracted protein."}, "[2]": {"system": "CD-1 mice", "format": "in vivo", "conditions": "for safety of lipoplex for CD-1 mice: 25 μg of DNA, pure cationic lipid liposomes, 1:16 charge ratio; for Number of animals died per group (n = 3): CD-1 mice (20 g), charge ratio 16:1+/−, counted after 48 h; for relative toxicity of liposome compositions: escalating doses of lipoplexes, groups of three animals, first 48 hours", "experimental": "as §1\nTable 2 below lists the number of animals that expired during the first 48 hours of the experiment period, when escalating doses of the lipoplexes were given to a group of three animals. Lipoplex containing 25 μg of DNA and DOTMA or MMET liposomes at 1:16 charge ratio or with a mixture of cholesterol-DOTMA, or cholesterol-MMET at 1:4 charge ratios appear to be quite safe for CD-1 mice. Higher charge ratios of lipid to DNA and high doses of lipoplex were required to reach a lethal dose. […] In general, MMET containing liposomes were less toxic than the ones containing DOTMA."}, "[3]": {"system": "CD-1 mice", "conditions": "mouse, in vivo"}},
  "note": "Where two headings read alike, the source gives them in different places.",
  "data": [
    {"compound": "CCCCCCCC/C=C\\CCCCCCCC(=O)OCC(C[N+](C)(C)C)OC(=O)CCCCCCC/C=C\\CCCCCCCC", "note": "(centres unmarked) [DOTAP, 1,2-dioleoyl-3-trimethylammonium propane, reference compound]", "values": [
      {"measurement": "Relative Activity of MMET Analogues-Cholesterol Liposomes", "setting": "[1]", "result": 28.14},
      {"measurement": "rank order of transfection activity in lungs", "setting": "[1]", "result": "MMET≧DOTMA>MMES>DOTAP>LADOP"}
    ]},
    {"compound": "CCCCCCCC/C=C\\CCCCCCCC(=O)OCC(C[N+]1(C)CCOCC1)OC(=O)CCCCCCC/C=C\\CCCCCCCC", "note": "(centres unmarked) [MMES, N-3-methyl-1,2-dioleoyl-3-morpholinium propane]", "values": [
      {"measurement": "transfection level versus trimethylammonium counterparts (DOTMA, DOTAP)", "setting": "[1]; lungs", "result": "higher levels of transfection"},
      {"measurement": "Relative Activity of MMET Analogues-Cholesterol Liposomes", "setting": "[1]", "result": 48.72},
      {"measurement": "rank order of transfection activity in lungs", "setting": "[1]", "result": "MMET≧DOTMA>MMES>DOTAP>LADOP"}
    ]},
    {"compound": "N-3-methyl-1,2-dioleyl-3-morpholinium propane chloride [MMET]", "values": [
      {"measurement": "safety of lipoplex for CD-1 mice", "setting": "[2]", "result": "quite safe"},
      {"measurement": "Number of animals died per group (n = 3)", "setting": "[2]; DNA dosage 25 ug", "result": "(0)"},
      {"measurement": "Number of animals died per group (n = 3)", "setting": "[2]; DNA dosage 30 ug", "result": "(0)"},
      {"measurement": "Number of animals died per group (n = 3)", "setting": "[2]; DNA dosage 45 ug", "result": "(1)"},
      {"measurement": "relative toxicity of liposome compositions", "setting": "[2]", "result": "somewhere in between"},
      {"measurement": "transfection level versus trimethylammonium counterparts (DOTMA, DOTAP)", "setting": "[1]; lungs", "result": "higher levels of transfection"},
      {"measurement": "Relative Activity of MMET Analogues-Cholesterol Liposomes", "setting": "[1]", "result": 100},
      {"measurement": "transfection activity versus prior art liposomes composed of DOTMA and/or DOTAP or DOTMA-cholesterol", "setting": "[1]; i.v. to mice, luciferase after 12 hours", "result": "much higher"},
      {"measurement": "rank order of transfection activity in lungs", "setting": "[1]", "result": "MMET≧DOTMA>MMES>DOTAP>LADOP"}
    ]},
    {"compound": "CCCCCCCC/C=C\\CCCCCCCC(=O)OCC(C[N+]1(C)CCCC1)OC(=O)CCCCCCC/C=C\\CCCCCCCC", "note": "(centres unmarked) [MPES, N-3-methyl-1,2-dioleoul-3-pyrrolinum propane]", "values": [
      {"measurement": "Relative Activity of MMET Analogues-Cholesterol Liposomes", "setting": "[1]", "result": 1.87}
    ]},
    {"compound": "CCCCCCCC/C=C\\CCCCCCCCOCC(C[N+]1(C)CCCC1)OCCCCCCCC/C=C\\CCCCCCCC", "note": "(centres unmarked) [MPET, -3-methyl-1,2-dioleyl-3-pyrrolinium propane]", "values": [
      {"measurement": "Relative Activity of MMET Analogues-Cholesterol Liposomes", "setting": "[1]", "result": 55.49}
    ]},
    {"compound": "CCCCCCCC/C=C\\CCCCCCCCOCC(CN1CCOCC1)OCCCCCCCC/C=C\\CCCCCCCC", "note": "(centres unmarked) [dioleyl morpholino propanediol, 1,2-dioleyl-N-3-morpholino propane]", "values": [
      {"measurement": "in vivo transfection activity of MMET analogues (in words)", "setting": "[1]; formulated with cholesterol at 1:1 mole ratios, lungs", "result": "only weak activity"}
    ]},
    {"compound": "CCCCCCCC/C=C\\CCCCCCCCOCC(C[N+](C)(C)C)OCCCCCCCC/C=C\\CCCCCCCC.[Cl-]", "note": "(centres unmarked) [DOTMA, 1,2,-dioleyl-3-N,N,N-trimethyl amino propane chloride, reference compound]", "values": [
      {"measurement": "safety of lipoplex for CD-1 mice", "setting": "[2]", "result": "quite safe"},
      {"measurement": "Number of animals died per group (n = 3)", "setting": "[2]; DNA dosage 25 ug", "result": "(0)"},
      {"measurement": "Number of animals died per group (n = 3)", "setting": "[2]; DNA dosage 30 ug", "result": "(2)"},
      {"measurement": "Number of animals died per group (n = 3)", "setting": "[2]; DNA dosage 45 ug", "result": "(3)"},
      {"measurement": "relative toxicity of liposome compositions", "setting": "[2]", "result": "somewhere in between"},
      {"measurement": "rank order of transfection activity in lungs", "setting": "[1]", "result": "MMET≧DOTMA>MMES>DOTAP>LADOP"}
    ]},
    {"compound": "CCCCCCCC/C=C\\CCCCCCCC(=O)OCC(CNC(=O)[C@@H](N)CCCCN)OC(=O)CCCCCCC/C=C\\CCCCCCCC", "note": "(stereo partly drawn) [LADOP, N-[(2,3-dioleoyloxy)propyl]-L-lysinamide]", "values": [
      {"measurement": "duration of transgene expression in lungs (disappearing by)", "setting": "[1]; liposome/DNA complex delivered intravenously, after transfection", "result": "≤ 48", "unit": "h"},
      {"measurement": "rank order of transfection activity in lungs", "setting": "[1]", "result": "MMET≧DOTMA>MMES>DOTAP>LADOP"},
      {"measurement": "gene expression after second intravenous transfection", "setting": "[1]; second injection at 48 hours after the first injection", "result": "almost identical gene expression and duration"},
      {"measurement": "tolerance of repeated intravenous doses", "setting": "[3]", "result": "tolerated repeated intravenous doses of DNA/LADOP complex well"}
    ]},
    {"compound": "CCCCCCCC/C=C\\CCCCCCCCOCC[N+]1(CCOCCCCCCCC/C=C\\CCCCCCCC)CCOCC1.[Cl-]", "note": "[DODHEM, N,N-di-(2-oleyloxyethyl)-mopholinium chloride]", "values": [
      {"measurement": "Relative Activity of MMET Analogues-Cholesterol Liposomes", "setting": "[1]", "result": 74.54}
    ]},
    {"compound": "CCCCCCCC/C=C\\CCCCCCCC[N+]1(CCCCCCCC/C=C\\CCCCCCCC)CCOCC1.[Cl-]", "note": "[DOMor, N,N-dioleylmorpholinium chloride]", "values": [
      {"measurement": "Relative Activity of MMET Analogues-Cholesterol Liposomes", "setting": "[1]", "result": 76.09}
    ]}
  ]
}
